The OPERA property sets (Mansouri et al. 2018)

Compared with `CCNC(=O)NC(C)=O`, `CNC(=O)NC(C)=O` is lower in logP: -0.01 for the first, -0.7 for the second.

`Cc1cccc([N+](=O)[O-])c1C(=O)NC(=O)Nc1ccc(Cl)cc1` and `O=C(NC(=O)c1c(F)cccc1F)Nc1ccc(Cl)cc1` are within 0.2 log units of each other in logP: 3.75 for the first, 3.88 for the second.

Compared with `O=C(NC(=O)c1c(F)cccc1F)Nc1ccc(F)cc1`, `COc1ccccc1C(=O)NC(=O)Nc1ccc(Cl)cc1` is higher in logP: 3.2 for the first, 4.35 for the second.

First: CC(=O)NC(=O)Nc1ccccc1
Second: O=C(NC(=O)c1ccccc1)Nc1ccccc1
The logP of the first is lower: 1.6 for the first, 3.39 for the second.

Compared with `CNC(N)=O`, `CNC(=O)NC(=O)c1ccccc1` is higher in logP: -1.4 for the first, 1.27 for the second.

`CCNC(=O)NC(=O)c1ccccc1` gave a logP of 1.92.
